Remaining target (mRNA or protein) (fraction of control) data for 59 sequences are collected here from the OligoGym collection.

“And” between values parts separate entries of the source, which are not always exact repeats. Equal values may be shown once. These antisense oligonucleotides have a phosphorothioate backbone; sugars and methylation of C are not fully specified. A value given as a limit tells only on which side of the number the result lay.
Note: test concentration or dose not given here.

The first data set addresses IL1R1. As to conditions: ASO.
Take GCAAAGCGGGCCCAGGAGAA: the remaining target (mRNA or protein) (fraction of control) was 0.3.
Same read-out and setting: next, GCAACGCCATAAGACAGGAG: 0.75.
The sequence GCCACCACAGCCTCTCCCTC registered a remaining target (mRNA or protein) (fraction of control) of 0.42.
In turn, GCGGGATGACAGAAGAGCGG showed a remaining target (mRNA or protein) (fraction of control) of 0.75.
As for GGAACTGCCTTTCGCGGTCT, the remaining target (mRNA or protein) (fraction of control) amounted to 0.75.
Still for that read-out and setting: next, TACCCGAGAGGCACGTGAGC: 0.75; TCGGCTCCTCCCGGCCGCGC: 0.75; TCTGAGTAACACTTTCAT: 0.75.
Regarding TCTGGCATTTTCTCATAGTC, the remaining target (mRNA or protein) (fraction of control) was found to be 0.75.
As to TCTTCAGAGGGTGCGTCTAC, the remaining target (mRNA or protein) (fraction of control) was 0.75.
On the same count and under the same terms, the result for TGATCCGTGATGCATGCTGT reads 0.5.
As to TGCCTTTCGCGGTCTCGCTC, the remaining target (mRNA or protein) (fraction of control) was 0.75.
In turn, TGGTGACCTCAGGGATAAAG registered a remaining target (mRNA or protein) (fraction of control) of 0.75.
In turn, TGTGTCCTGCAATCGGTGGC had a remaining target (mRNA or protein) (fraction of control) of 0.1.

A further data set deals with NSMAF. As to conditions: ASO.
With AATCTCTCCTTGGAGTAG, the remaining target (mRNA or protein) (fraction of control) turned out to be 0.61.
On the same count and under the same terms, next, ACTCGTGAAGGTGTTCAG: 0.34; AGATCCCGGAAGGTTCCT: 0.22; ATACAGTCTCTCAAAGGA: 0.73.
On to ATCTGCCATAGAAGCATT, for which the remaining target (mRNA or protein) (fraction of control) came out at 0.56.
Regarding ATCTGTCCTCCTTGTCTC, the remaining target (mRNA or protein) (fraction of control) was found to be 0.47.
In the case of CACAGCATATACTCTGGT, the remaining target (mRNA or protein) (fraction of control) is 0.35.
On the same count and under the same terms, the result for CATTTTATCTGCCCTAAG reads 0.56; that for CCTCCTTCATAGGTCAGG, 0.74; that for CCTTTCTATTTTATATGG, 0.74.
In turn, CGAGACTGCAAAATAGCT yielded a remaining target (mRNA or protein) (fraction of control) of 0.32.
In turn, CTCTTCTGGAGAAAGTCC yielded a remaining target (mRNA or protein) (fraction of control) of 0.67.
CTGCAGCATGTAGCTCTC displayed a remaining target (mRNA or protein) (fraction of control) of 0.83.
For the sequence CTTCAGGCTATTGACTAG, the remaining target (mRNA or protein) (fraction of control) is 0.46.
GACTCCCATACATGAACT had a remaining target (mRNA or protein) (fraction of control) of 0.51.
With GAGTGTTATCTGGACCAC, the remaining target (mRNA or protein) (fraction of control) is 0.28.
As to GCATGGCTACCTTCTCAT, the remaining target (mRNA or protein) (fraction of control) was 0.15.

In another data set the target is SELE. As to conditions: ASO.
Consider CCAATCATGACTTCAAGAGTT, for which the remaining target (mRNA or protein) (fraction of control) was found to be 0.32.
Turning to CCCAAAGGTTTAGGCTTG, the remaining target (mRNA or protein) (fraction of control) was determined as 0.61.
CGTTCTGCACTTACCGTTTTG: the remaining target (mRNA or protein) (fraction of control) was determined as 0.52.
In turn, CTGATTCAAGGCTTTGGCAG registered a remaining target (mRNA or protein) (fraction of control) of 0.55.
The sequence CTGCTGCCTCTGTCTCAGGT had a remaining target (mRNA or protein) (fraction of control) of 0.07.
On to CTGTGAAGCAATCATGAC, for which the remaining target (mRNA or protein) (fraction of control) worked out at 0.96.
In turn, CTTTCCTGGGGAGATAAA yielded a remaining target (mRNA or protein) (fraction of control) of 0.96.
For the sequence GAAATACTTTCCTCCGTTTTG, the remaining target (mRNA or protein) (fraction of control) is ≥ 1.
For GAAATACTTTCCTGGGGAGAT, the remaining target (mRNA or protein) (fraction of control) stood at 0.81.
Turning to GAAGTCAGCCAAGAACAGCT, the remaining target (mRNA or protein) (fraction of control) came to 0.5.
GACAATATACAAACCTTCCAT returned a remaining target (mRNA or protein) (fraction of control) of 0.65.
For GACTTCAAGAGTTCT, the remaining target (mRNA or protein) (fraction of control) is 0.82.
In turn, GAGTTCTTTTCACCC showed a remaining target (mRNA or protein) (fraction of control) of 0.63.
On to GATGTGAAGTCAGCCAA, for which the remaining target (mRNA or protein) (fraction of control) was 0.51.
GCATGTCACAGCTGTAACAAA yielded a remaining target (mRNA or protein) (fraction of control) of 0.5.
For the sequence GGAATGCAAAGCACATCCAT, the remaining target (mRNA or protein) (fraction of control) was found to be 0.71.
For GGCTTGAAATACTTTCCT, the remaining target (mRNA or protein) (fraction of control) was 0.84.
The sequence GGGCCAGAGACCCGAGGAGA displayed a remaining target (mRNA or protein) (fraction of control) of 0.46.
GGGGAGATAAAACACAAAATG: the remaining target (mRNA or protein) (fraction of control) came out at 0.79.
The same measure, in the same setting: the result for GTATGGAAGATTATAATATAT reads 0.59.
GTTCACAACTGAAAAAGAAAC yielded a remaining target (mRNA or protein) (fraction of control) of 0.51.
GTTTAAGGCAGCATCCTAAGA returned a remaining target (mRNA or protein) (fraction of control) of 0.38.
With TATAGGAGTTTTGATGTGAA, the remaining target (mRNA or protein) (fraction of control) amounted to 0.74.
TCACCCAAAGGTTTAGGCTTG returned a remaining target (mRNA or protein) (fraction of control) of 0.1.
Same read-out and setting: next, TCCTCTCTTCCAGAGCACCC: ≥ 1.
Turning to TGAAGCAATCATGACTTCAAG, the remaining target (mRNA or protein) (fraction of control) was ≥ 1 and 0.51.
As to TGAAGTCAGCCAAGAACAGCT, the remaining target (mRNA or protein) (fraction of control) is 0.08.
On the same count and under the same terms, next, TTCCCCAGATGCACCTGTTT: 0.02.
